Measurements as given in patent US8664257B2, “Oxygen-substituted 3-heteroaroylamino-propionic acid derivatives and their use as pharmaceuticals” (Sanofi, priority 2010, dated 2014).
Where two headings read alike, the source gives them in different places.

Biological target: T1, Recombinant human cathepsin A (Homo sapiens, UniProt P10619)
T1 construct: Recombinant human cathepsin A (residues 29-480, with a C-terminal 10-His tag); 10-His (C); purchased R&D Systems 1049-SE
T1 sequence (P10619 29-312 limits assumed): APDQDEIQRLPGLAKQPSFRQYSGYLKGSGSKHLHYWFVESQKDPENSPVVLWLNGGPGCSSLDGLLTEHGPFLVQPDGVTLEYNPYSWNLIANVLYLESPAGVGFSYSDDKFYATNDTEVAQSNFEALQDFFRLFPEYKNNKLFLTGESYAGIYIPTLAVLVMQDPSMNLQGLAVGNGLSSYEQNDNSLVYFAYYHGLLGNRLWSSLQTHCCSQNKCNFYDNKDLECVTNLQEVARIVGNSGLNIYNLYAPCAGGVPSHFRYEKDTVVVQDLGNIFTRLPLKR
T1 sequence (P10619 327-480 limits assumed): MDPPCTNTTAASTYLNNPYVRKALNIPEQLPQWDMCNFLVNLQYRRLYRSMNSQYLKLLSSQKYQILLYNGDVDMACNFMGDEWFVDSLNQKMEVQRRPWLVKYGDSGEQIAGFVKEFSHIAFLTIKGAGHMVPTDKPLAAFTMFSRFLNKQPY
Experiment: Cathepsin A inhibitory activity
Format: biochemical
Outline: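 Read-out was microfluidic separation of cleaved vs. uncleaved Bodipy FL-bradykinin (2 μM), giving turnover, % inhibition and IC50. Compound and 833 ng/ml enzyme met for 15 min RT in pH 5.5 MES/DTT before substrate (15 min RT). The 29-480 His-tagged human enzyme was first activated by cathepsin L, then E-64 (10 μM).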

[1] = recombinant human cathepsin A 833 ng/ml, Bodipy FL-labeled bradykinin 2 μM, pH 5.5, read-out: CATH-A IC50
[2] = recombinant human cathepsin A, read-out: Activity (2): Cathepsin A inhibitory activity, IC50 class
[3] = read-out: Activity (2): Cathepsin A inhibitory activity, IC50 class
[4] = read-out: Activity (2): Cathepsin A inhibitory activity (IC50 class)
[5] = pharmacological test "Cathepsin A inhibitory activity", IC50 given as class A/B/C, read-out: Activity (2): Cathepsin A inhibitory activity, IC50 class

With `O=C(O)CC(NC(=O)c1cc(O)n(-c2ccccc2Cl)n1)c1ccc(N2CCOCC2)cc1` (stereo not drawn) [Example 505, 3-{[1-(2-Chloro-phenyl)-5-hydroxy-1H-pyrazole-3-carbonyl]-amino}-3-(4-morpholin-4-yl-phenyl)-propionic acid] the IC50 [1] was 29800 nM and the IC50 [2] was 1000 to 30000 nM.

`CC(C)CC(CC(=O)O)NC(=O)c1cc(O)n(-c2ccccc2)n1` (stereo not drawn) [Example 19] was tested, and the IC50 [3] was 100 to 1000 nM.

`Cc1ccccc1C(CC(=O)O)NC(=O)c1cc(O)n(-c2ccc(Cl)cc2)n1` (stereo not drawn) [Example 79] showed an IC50 [3] of 100 to 1000 nM.

In the case of `Cc1cc(COc2cc(C(=O)N[C@@H](CC(=O)O)c3ccccc3C)nn2-c2ccccc2F)no1` [Example 657], the IC50 [4] is reported as less than 100 nM.

Work on `CC(C)[C@](C)(O)COc1cc(C(=O)N[C@H](CC(=O)O)Cc2ccccc2)nn1-c1ccccc1F` [Example 837, (S)-3-{[1-(2-Fluoro-phenyl)-5-((S)-2-hydroxy-2,3-dimethyl-butoxy)-1H-pyrazole-3-carbonyl]-amino}-4-phenyl-butyric acid] yielded an IC50 [3] of 1000 to 30000 nM.

With `O=C(O)CC(NC(=O)c1cc(O)n(-c2cc(F)cc(F)c2)n1)c1ccc(-c2ccc(F)cc2)cc1` (stereo not drawn) [Example 587] the IC50 [4] was 1000 to 30000 nM.

For `O=C(O)C[C@H](NC(=O)c1cc(O)n(-c2ccccc2F)n1)c1cccc(F)c1` [Example 400], the IC50 [3] was 100 to 1000 nM.

`CCC(C)(C)NC(=O)C[C@H](NC(=O)c1cc(OC)n(-c2ccccc2F)n1)c1ccccc1C` [Example 917, 1-(2-Fluoro-phenyl)-5-methoxy-1H-pyrazole-3-carboxylic acid [(S)-2-(1,1-dimethyl-propylcarbamoyl)-1-o-tolyl-ethyl]-amide] gave an IC50 [2] of 1000 to 30000 nM.

`O=C(O)CC(NC(=O)c1cc(O)n(-c2ccccc2Cl)n1)c1ccc(-c2ccccc2)cc1` (stereo not drawn) [Example 226] showed an IC50 [5] of 100 to 1000 nM.

With `O=C(O)C[C@H](NC(=O)c1cc(O)n(-c2ccccc2Cl)n1)c1cccc(F)c1` [Example 393] the IC50 [3] was 100 to 1000 nM.

`O=C(O)CC(NC(=O)c1cc(O)n(-c2ccc(F)cc2)n1)c1cccc2c1OCO2` (stereo not drawn) [Example 336] was tested, and the IC50 [3] was 100 to 1000 nM.

For `COc1ccc(C(CC(=O)O)NC(=O)c2cc(O)n(-c3ccccc3)n2)cc1` (stereo not drawn) [Example 3, 3-[(5-Hydroxy-1-phenyl-1H-pyrazole-3-carbonyl)-amino]-3-(4-methoxy-phenyl)-propionic acid], the IC50 [3] was 100 to 1000 nM.

`O=C(O)CC(NC(=O)c1cc(O)n(-c2ccccc2Cl)n1)c1ccc(Oc2ccccc2)cc1` (stereo not drawn) [Example 113] gave an IC50 [3] of 100 to 1000 nM.

`O=C(O)CC(NC(=O)c1cc(O)n(-c2cccc(Cl)c2)n1)c1ccc(-c2ccccn2)cc1` (stereo not drawn) [Example 513, 3-{[1-(3-Chloro-phenyl)-5-hydroxy-1H-pyrazole-3-carbonyl]-amino}-3-(4-pyridin-2-yl-phenyl)-propionic acid] showed an IC50 [1] of 195 nM and an IC50 [2] of 100 to 1000 nM.

With `COc1ccc(Cl)cc1C(CC(=O)O)NC(=O)c1cc(O)n(-c2ccccc2)n1` (stereo not drawn) [Example 375] the IC50 [3] was 100 to 1000 nM.

Work on `CC(C)(C)[C@H](O)COc1cc(C(=O)N[C@@H](CC(=O)O)c2ccc(Cl)cc2Cl)nn1-c1ccccc1F` [Example 754, (S)-3-(2,4-Dichloro-phenyl)-3-{[1-(2-fluoro-phenyl)-5-((S)-2-hydroxy-3,3-dimethyl-butoxy)-1H-pyrazole-3-carbonyl]-amino}-propionic acid] yielded an IC50 [4] of less than 100 nM.

For `CCc1ccc(C(CC(=O)O)NC(=O)c2cc(O)n(-c3cc(C)ccc3C)n2)cc1` (stereo not drawn) [Example 41], the IC50 [3] was 1000 to 30000 nM.

For `O=C(O)CC(NC(=O)c1cc(O)n(-c2ccccc2Cl)n1)c1ccc(Cl)c(Cl)c1` (stereo not drawn) [Example 227], the IC50 [5] was 100 to 1000 nM.

Work on `Cc1cccc(C(CC(=O)O)NC(=O)c2cc(O)n(-c3cccc(F)c3)n2)c1C` (stereo not drawn) [Example 432] yielded an IC50 [2] of 100 to 1000 nM.

`CCc1ccc(C(CC(=O)O)NC(=O)c2cc(O)n(-c3cccc(Cl)c3)n2)cc1` (stereo not drawn) [Example 264] gave an IC50 [5] of 100 to 1000 nM.

Compound `Cc1c(F)cccc1C(CC(=O)O)NC(=O)c1cc(O)n(-c2ccccc2Cl)n1` (stereo not drawn) [Example 455, 3-{[1-(2-Chloro-phenyl)-5-hydroxy-1H-pyrazole-3-carbonyl]-amino}-3-(3-fluoro-2-methyl-phenyl)-propionic acid] has an IC50 [1] of 154 nM and an IC50 [2] of 100 to 1000 nM.

`CC(C)(C)[C@@](C)(O)COc1cc(C(=O)N[C@@H](CC(=O)O)c2ccc(F)cc2)nn1-c1ccccc1F` [Example 771, (S)-3-(4-Fluoro-phenyl)-3-{[1-(2-fluoro-phenyl)-5-((R)-2-hydroxy-2,3,3-trimethyl-butoxy)-1H-pyrazole-3-carbonyl]-amino}-propionic acid] showed an IC50 [4] of less than 100 nM and an IC50 [1] of 1.97 nM.

Work on `O=C(O)CC(NC(=O)c1cc(O)n(-c2cccnc2)n1)c1ccc(-c2ccccc2)cc1` (stereo not drawn) [Example 440] yielded an IC50 [2] of 1000 to 30000 nM.

Compound `O=C(O)CC(NC(=O)c1cc(O)n(-c2ccccc2)n1)c1ccc(-c2ccc(F)cc2)cc1` (stereo not drawn) [Example 104] has an IC50 [3] of 100 to 1000 nM.

In the case of `Cc1ccccc1[C@H](CC(=O)O)NC(=O)c1cc(O)n(C2CCCC2)n1` [Example 572], the IC50 [4] is reported as 100 to 1000 nM.

`O=C(O)CC(NC(=O)c1cc(O)n(C2CCCCC2)n1)c1ccc(-c2ccc(F)cc2)cc1` (stereo not drawn) [Example 575] gave an IC50 [4] of 1000 to 30000 nM.

`COc1ccccc1[C@H](CC(=O)O)NC(=O)c1cc(O)n(-c2ccc(F)cc2)n1` [Example 342] showed an IC50 [3] of 100 to 1000 nM.

`O=C(O)C[C@H](NC(=O)c1cc(O)n(-c2ccc(F)cc2F)n1)c1cccc(F)c1` [Example 183] was tested, and the IC50 [5] was 100 to 1000 nM.

`COc1ccc(-c2ccccc2)cc1C(CC(=O)O)NC(=O)c1cc(O)n(-c2ccccc2)n1` (stereo not drawn) [Example 549, 3-[(5-Hydroxy-1-phenyl-1H-pyrazole-3-carbonyl)-amino]-3-(4-methoxy-biphenyl-3-yl)-propionic acid] showed an IC50 [4] of 1000 to 30000 nM and an IC50 [1] of 13800 nM.

Work on `O=C(O)C[C@H](NC(=O)c1cc(O)n(-c2ccc(F)cc2F)n1)c1ccccc1Cl` [Example 502, (S)-3-(2-Chloro-phenyl)-3-{[1-(2,4-difluoro-phenyl)-5-hydroxy-1H-pyrazole-3-carbonyl]-amino}-propionic acid] yielded an IC50 [1] of 116 nM and an IC50 [2] of 100 to 1000 nM.

Work on `Cc1ccc(C(CC(=O)O)NC(=O)c2cc(O)n(-c3cc(C)ccc3C)n2)cc1` (stereo not drawn) [Example 50] yielded an IC50 [3] of 1000 to 30000 nM.

With `Cc1ccc([C@H](CC(=O)O)NC(=O)c2cc(O)n(-c3cccc(Cl)c3)n2)cc1` [Example 512, (S)-3-{[1-(3-Chloro-phenyl)-5-hydroxy-1H-pyrazole-3-carbonyl]-amino}-3-p-tolyl-propionic acid] the IC50 [1] was 155 nM and the IC50 [2] was 100 to 1000 nM.

Compound `Cc1ccccc1[C@H](CC(=O)O)NC(=O)c1cc(OC(=O)N2CCCC2)n(-c2ccccc2F)n1` [Example 613, Pyrrolidine-1-carboxylic acid 5-((S)-2-carboxy-1-o-tolyl-ethylcarbamoyl)-2-(2-fluoro-phenyl)-2H-pyrazol-3-yl ester] has an IC50 [4] of less than 100 nM.

`COc1ccc([C@H](CC(=O)O)NC(=O)c2cc(O)n(-c3ccc(F)cc3)n2)cc1` [Example 435] showed an IC50 [2] of 100 to 1000 nM.

`Cc1ccc(C(CC(=O)O)NC(=O)c2cc(O)n(-c3ccccc3Cl)n2)c(F)c1` (stereo not drawn) [Example 561, 3-{[1-(2-Chloro-phenyl)-5-hydroxy-1H-pyrazole-3-carbonyl]-amino}-3-(2-fluoro-4-methyl-phenyl)-propionic acid] was tested, and the IC50 [4] was 100 to 1000 nM and the IC50 [1] was 266 nM.

`Cc1ccc([C@H](CC(=O)O)NC(=O)c2cc(OC[C@@](C)(O)C(C)C)n(-c3ccccc3F)n2)cc1` [Example 766, (S)-3-{[1-(2-Fluoro-phenyl)-5-((S)-2-hydroxy-2,3-dimethyl-butoxy)-1H-pyrazole-3-carbonyl]-amino}-3-p-tolyl-propionic acid] gave an IC50 [4] of less than 100 nM and an IC50 [1] of 0.692 nM.

`COc1cccc(-c2ccc(C(CC(=O)O)NC(=O)c3cc(O)n(-c4ccccc4F)n3)cc2)c1` (stereo not drawn) [Example 156] gave an IC50 [5] of 100 to 1000 nM.

For `COc1ccc(C(CC(=O)O)NC(=O)c2cc(O)n(-c3cc(C)ccc3C)n2)cc1F` (stereo not drawn) [Example 54], the IC50 [3] was 1000 to 30000 nM.

In the case of `O=C(O)CC(NC(=O)c1cc(O)n(-c2ccc(Cl)cc2)n1)c1cccc(Cl)c1Cl` (stereo not drawn) [Example 281], the IC50 [3] is reported as 100 to 1000 nM.

`COc1cc(C(=O)NC(CC(=O)O)c2ccc(-c3ccc(F)cc3)cc2)nn1-c1ccccc1` (stereo not drawn) [Example 544] was tested, and the IC50 [4] was 1000 to 30000 nM.

`O=C(O)C[C@H](NC(=O)c1cc(OCC2CC2)n(-c2ccccc2F)n1)c1ccc(Cl)cc1Cl` [Example 693] gave an IC50 [4] of 100 to 1000 nM.

With `Cc1ccc([C@H](CC(=O)O)NC(=O)c2cc(O)n(-c3ccc(F)cc3)n2)cc1` [Example 526, (S)-3-{[1-(4-Fluoro-phenyl)-5-hydroxy-1H-pyrazole-3-carbonyl]-amino}-3-p-tolyl-propionic acid] the IC50 [1] was 358 nM and the IC50 [2] was 100 to 1000 nM.

With `CC(C)[C@@](C)(O)COc1cc(C(=O)NC2(CC(=O)O)CCCC2)nn1-c1ccccc1F` [Example 824, (1-{[1-(2-Fluoro-phenyl)-5-((R)-2-hydroxy-2,3-dimethyl-butoxy)-1H-pyrazole-3-carbonyl]-amino}-cyclopentyl)-acetic acid] the IC50 [3] was 100 to 1000 nM.

With `Cc1ccccc1[C@H](CC(=O)O)NC(=O)c1cc(OCC(O)C(C)(C)C)n(-c2ccccc2F)n1` (stereo partly drawn) [Example 744, (S)-3-{[1-(2-Fluoro-phenyl)-5-(2-hydroxy-3,3-dimethyl-butoxy)-1H-pyrazole-3-carbonyl]-amino}-3-o-tolyl-propionic acid] the IC50 [4] was less than 100 nM.
